# Data as given in patent US20120040464A1, “METHOD FOR GENERATING HOMOPLASMIC CELLS FROM HETEROPLASMIC CELLS” (NATIONAL CENTER OF NEUROLOGY AND PSYCHIATRY, priority 2009, published 2012).
# Tested on: MELAS cells (primary culture cells from the skeletal muscle and skin of MELAS patients)
# Conditions: 100 μM, 30 minutes
# Procedure: MELAS cells were plated to result in a cell density of 1×10^5 to 1×10^6 cells/mL in the presence of DMEM containing 10% FCS, and they were then cultured at 37° C. in a 5% CO2 atmosphere for 3 days. After completion of the culture for 3 days, when the cell density reached 5×10^5 to 6×10^6 cells/mL, the cells were diluted by a factor of 10^4 to 1.2×10^5. The resultant cells were plated and were further cultured for 15 days. After completion of the culture for 15 days, several single colonies of cells were selected, and DNA was then extracted by a common method. Using the extracted DNA sample as a template, PCR was carried out with a primer pair for amplifying a site around the nucleotide at position 3243 of the mtDNA. Thereafter, the PCR product was treated with ApaI. In the case of normal mtDNA, the sequence around the nucleotide at position 3243 is GAGCCC (wherein the underlined portion corresponds to the nucleotide at position 3243). […] Accordingly, it becomes possible to evaluate the heteroplasmic state of the cells by calculating the ratio of the 182-bp and 112-bp bands to the 294-bp bands (see Goto et al., Nature, 348, 651-653, 1990 for the details of this method).
# Thereafter, the cells were washed with PBS three times, and were then cultured for 3 days. After completion of the culture for 3 days, when the cell density reached 5×10^5 to 6×10^6 cells/mL, the cells were diluted by a factor of 10^4 to 1.2×10^5. The resultant cells were plated and were further cultured for 15 days. After completion of the culture for 15 days, several single colonies of cells were selected, and DNA was then extracted by a common method. The intracellular percentage of the A3243G substitution mutation of mtDNA was examined with respect to the obtained DNA samples by the same method as described above.
smiles,measurement,setting,value
OO [hydrogen peroxide],percentage of A3243G substitution mutation in cell clones obtained after a hydrogen peroxide treatment,"then 3 days and 15 days culture, single-colony clones with decreased percentage, e.g. clone 16, clone 25",~0%
same,percentage of A3243G substitution mutation in clones where it became higher than without hydrogen peroxide treatment,"e.g. clones 15, 27, 29, 32, 34, 35, 36, 39, untreated 30%",> 30%
same,effect of treatment on homoplasmic state of the cells,MELAS cells,promotes the conversion of the cells to a homoplasmic state
